Broadly, the IC50 is the concentration at which inhibition is half-maximal. Lower therefore signals higher potency.

Molecules are shown by their SMILES.

T1 sequence (Q86U44 whole entry): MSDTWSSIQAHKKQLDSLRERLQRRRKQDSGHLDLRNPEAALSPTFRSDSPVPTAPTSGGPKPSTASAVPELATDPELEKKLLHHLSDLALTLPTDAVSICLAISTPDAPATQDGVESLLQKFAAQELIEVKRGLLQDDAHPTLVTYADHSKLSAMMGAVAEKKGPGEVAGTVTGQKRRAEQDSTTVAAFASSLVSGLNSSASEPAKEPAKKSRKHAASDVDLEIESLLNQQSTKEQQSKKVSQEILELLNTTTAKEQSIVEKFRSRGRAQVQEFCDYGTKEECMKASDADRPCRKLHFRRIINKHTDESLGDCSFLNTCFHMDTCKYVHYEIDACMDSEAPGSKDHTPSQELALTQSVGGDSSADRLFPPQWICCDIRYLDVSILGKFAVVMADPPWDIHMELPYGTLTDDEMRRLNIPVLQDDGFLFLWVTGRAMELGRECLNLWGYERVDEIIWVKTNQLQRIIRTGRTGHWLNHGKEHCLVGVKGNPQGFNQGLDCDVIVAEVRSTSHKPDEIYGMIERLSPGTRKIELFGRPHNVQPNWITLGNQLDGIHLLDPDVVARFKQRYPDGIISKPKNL
T1 sequence (Q9HCE5 whole entry partner): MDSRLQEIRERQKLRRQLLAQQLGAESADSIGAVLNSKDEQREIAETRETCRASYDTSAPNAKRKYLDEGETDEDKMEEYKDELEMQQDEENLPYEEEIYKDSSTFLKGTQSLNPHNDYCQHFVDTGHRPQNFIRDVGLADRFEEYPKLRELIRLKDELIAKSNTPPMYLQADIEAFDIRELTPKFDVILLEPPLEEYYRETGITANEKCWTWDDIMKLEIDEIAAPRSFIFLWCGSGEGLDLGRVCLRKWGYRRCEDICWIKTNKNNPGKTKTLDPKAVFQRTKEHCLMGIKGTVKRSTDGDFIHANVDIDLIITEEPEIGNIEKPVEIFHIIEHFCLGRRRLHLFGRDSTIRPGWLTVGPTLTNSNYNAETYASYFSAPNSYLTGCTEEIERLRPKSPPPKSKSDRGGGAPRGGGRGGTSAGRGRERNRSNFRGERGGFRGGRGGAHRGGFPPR

This experiment addresses T1, METTL3/14 (Homo sapiens, UniProt Q86U44).
T1 construct: purchased active motif 31570
Description: METTL3/14 methyltransferase activity assay (HTRF). The conditions noted are these: 10 concentrations, 3-fold dilution from 10 µM. It is filed as biochemical. How it is done:
The final initial concentration of the compound was 10 µM, with 3-fold serial dilution to give a total of 10 concentrations. 100 nL of the compound was transferred to a 384-well plate and centrifuged at 1000 RPM. 2.5 µL of METTL3/14 (active motif, Cat No. 31570) was added to the test wells and incubated at 25°C for 10 min. 2.5 µL of METTL3-Biotin & SAM (GenScript) was added to the test wells andincubated at 25°C for 60 min. 2.5 µL of YTHDF1 (active motif, Cat No. 31608) was added to the test wells and centrifuged at 1000 RPM. 2.5 µL of Streptavidin-Tb (Perkin Elmer Cat No. 61SATLB) & Flag-mede (Perkin Elmer Cat No. 61FG2DLA) was added to the test wells and centrifuged at 1000 RPM. Incubated at 25°C for 60 min. HTRF was measured using a Plate reader. The results of each compound are shown in Table 1, where A+indicates <10nM, A indicates 10-100nM, B indicates 100-1000nM, and C indicates >1000nM.
In turn, `O=C(NCc1cc2[nH]c(CNCC34CC(F)(C3)C4)cc2cc1F)c1cc(=O)n2cc3c(cc2n1)OCO3` [Example 74, N-((5-fluoro-2-((((3-fluorobicyclo[1.1.1]pentan-1-yl)methyl)amino)methyl)-1H-indol-6-yl)methyl)-8-oxo-8H-[1,3]dioxolo[4',5':4,5]pyrido[1,2-a]pyrimidine-6-carboxamide] came in with an IC50 below 10 nM.
To `O=C(NCc1c(F)cc2cc(CNCC3CCC3)[nH]c2c1F)c1cc(=O)n2cc3c(cc2n1)OCO3` [Example 75, N-((2-(((Cyclobutylmethyl)amino)methyl)-5,7-difluoro-1H-indol-6-yl)methyl)-8-oxo-8H-[1,3]dioxolo[4',5':4,5]pyrido[1,2-a]pyrimidine-6-carboxamide] belongs 10 to 100 nM; to `O=C(NCc1ccc2cc(CNCc3ccc(F)s3)[nH]c2c1)c1cc(=O)n2cc3c(cc2n1)OCCO3` [Example 76, N-((2-((((5-fluorothiophen-2-yl)methyl)amino)methyl)-1H-indol-6-yl)methyl)-9-oxo-2,3-dihydro-9H-[1,4]dioxino[2',3':4,5]pyrido[1,2-a]pyrimidin-7-carboxamide], 10 to 100 nM; to `O=C(NCc1ccc2cc(CNC[C@H]3CCCO3)[nH]c2c1)c1cc(=O)n2cc3c(cc2n1)OCCO3` [Example 78, (R)-9-Oxo-N-((2-((((tetrahydrofuran-2-yl)methyl)amino)methyl)-1H-indol-6-yl)methyl)-2,3-dihydro-9H-[1,4]dioxino[2',3':4,5]pyrido[1,2-a]pyrimidine-7-carboxamide], 10 to 100 nM.
`O=C(NCc1ccc2cc(CNC[C@@H]3CCO3)[nH]c2c1)c1cc(=O)n2cc3c(cc2n1)OCCO3` [Example 79, (S)-N-((2-(((oxetan-2-ylmethyl)amino)methyl)-1H-indol-6-yl)methyl)-9-oxo-2,3-dihydro-9H-[1,4]dioxolo[2',3':4,5]pyrido[1,2-a]pyrimidine-7-carboxamide] had an IC50 of 10 to 100 nM.
Molecule `COC1(CNCc2cc3ccc(CNC(=O)c4cc(=O)n5cc6c(cc5n4)OCCO6)cc3[nH]2)CCC1` [Example 80, N-((2-((((1-Methoxycyclobutyl)methyl)amino)methyl)-1H-indol-6-yl)methyl)-9-oxo-2,3-dihydro-9H-[1,4]dioxino[2',3':4,5]pyrido[1,2-a]pyrimidine-7-carboxamide] came in with an IC50 of 10 to 100 nM.
Then `O=C(NCc1ccc2cc(CN3CCOC4(CCC4)C3)[nH]c2c1)c1cc(=O)n2cc3c(cc2n1)OCCO3` [Example 81, N-((2-((5-oxa-8-azaspiro[3.5]nonan-8-yl)methyl)-1H-indol-6-yl)methyl)-9-oxo-2,3-dihydro-9H-[1,4]dioxino[2',3':4,5]pyrido[1,2-a]pyrimidine-7-carboxamide], with 100 to 1000 nM.
To `O=C(NCc1ccc2cc(CNCc3ccc(F)s3)[nH]c2c1)c1cc(=O)n2cc3c(cc2n1)OCO3` [Example 82, N-((2-((((5-Fluorothiophen-2-yl)methyl)amino)methyl)-1H-indol-6-yl)methyl)-8-oxo-8H-[1,3]dioxolo[2',3':4,5]pyrido[1,2-a]pyrimidine-6-carboxamide] belongs 10 to 100 nM; to `COC1(CNCc2cc3ccc(CNC(=O)c4cc(=O)n5cc6c(cc5n4)OCO6)cc3[nH]2)CCC1` [Example 83, N-((2-((((1-Methoxycyclobutyl)methyl)amino)methyl)-1H-indol-6-yl)methyl)-8-oxo-8H-[1,3]dioxolo[2',3':4,5]pyrido[1,2-a]pyrimidine-6-carboxamide], below 10 nM.
